Assay results published in patent US7186731B2, “2-cyanopyrrolidinecarboxamide compound” (Astellas Pharma Inc., priority 2003, dated 2007).
Counter-ions that a name gives are not always drawn.

Tests used:
[1] = molecular target: T1, human plasma DPP-IV (Homo sapiens, UniProt P27487); experiment: Inhibition Test of Human Plasma DPP-IV; assay type: biochemical; settings: substrate H-glycine-proline-AMC, 20 minutes incubation at room temperature, fluorescence
T1 construct: from tissue; host or cells: human plasma
Procedure: Inhibition Test of Human Plasma DPP-IV
Briefly, 20 μL of human plasma were mixed with 20 μL of 80 mM MgCl2 in assay buffer (25 mM HEPES, 140 mM NaCl, 1% RIA-grade BSA, pH7.8), and were incubated in a room temperature for 60 minutes. Then the reaction was initiated by the addition of both 20 μL of test compounds and 20 μL of 0.2 mM substrate (H-glycine-proline-AMC; AMC is 7-amino-4-methylcoumarine), they were dissolved in the assay buffer.
After 20 minutes incubation in a room temperature (kept in the dark), fluorescence was measured (Excitation 380 nm, Emission 460 nm). A fluorescence-concentration curve of free AMC was obtained using AMC solution in the assay buffer with appropriate concentration. Plasma DPP-IV activities, with or without the test compounds, were expressed as the amount of product per minute per mL. The potency of the test compounds as DPP-IV inhibitor was expressed as IC50.

T1 sequence (P27487 39-766 limits assumed): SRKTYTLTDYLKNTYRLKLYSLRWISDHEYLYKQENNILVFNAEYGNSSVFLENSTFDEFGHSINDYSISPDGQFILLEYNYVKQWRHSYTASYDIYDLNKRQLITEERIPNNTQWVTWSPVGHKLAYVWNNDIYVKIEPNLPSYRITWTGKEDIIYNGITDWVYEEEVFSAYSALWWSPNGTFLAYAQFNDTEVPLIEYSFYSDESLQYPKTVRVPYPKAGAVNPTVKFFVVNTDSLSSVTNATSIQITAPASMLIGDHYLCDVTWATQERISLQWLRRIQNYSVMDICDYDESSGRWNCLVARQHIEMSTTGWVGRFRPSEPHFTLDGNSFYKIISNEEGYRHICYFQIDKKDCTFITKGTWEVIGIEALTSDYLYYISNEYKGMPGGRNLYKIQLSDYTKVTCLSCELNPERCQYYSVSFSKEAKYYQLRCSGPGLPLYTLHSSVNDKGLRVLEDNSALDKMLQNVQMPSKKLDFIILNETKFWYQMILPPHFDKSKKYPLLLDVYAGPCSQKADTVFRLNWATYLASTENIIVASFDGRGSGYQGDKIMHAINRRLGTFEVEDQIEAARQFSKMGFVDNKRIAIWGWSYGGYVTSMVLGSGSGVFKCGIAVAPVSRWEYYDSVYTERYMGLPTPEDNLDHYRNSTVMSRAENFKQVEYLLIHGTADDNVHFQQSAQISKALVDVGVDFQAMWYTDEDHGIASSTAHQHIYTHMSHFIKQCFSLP

SMILES | IC50 [1] [nM] | melting point [°C]
N#C[C@@H]1CCCN1C(=O)[C@H]1N[C@H]2CC[C@@H]1[C@H](O)C2 [Example 2-8, (2S)-1-{[(1S,3S,4S,5R)-5-hydroxy-2-azabicyclo[2.2.2]oct-3-yl]carbonyl}-2-pyrrolidinecarbonitrile hydrochloride] | 8.5 | 
N#C[C@@H]1CCCN1C(=O)[C@H]1N[C@@H]2C[C@H]1C[C@H]2O [Example 5-8, (2S)-1-{[(1R,3S,4S,6R)-6-hydroxy-2-azabicyclo[2.2.1]hept-3-yl]carbonyl}-2-pyrrolidinecarbonitrile hydrochloride] | 8.7 | 
CC1(NCC(=O)N2C[C@@H](F)C[C@H]2C#N)CCN(c2cnccn2)CC1 [Example 10-8, (2S,4S)-4-Fluoro-1-({[4-methyl-1-(2-pyrazinyl)-4-piperidinyl]amino}acetyl)-2-pyrrolidinecarbonitrile] | 13 | 166 to 167
CC1(NCC(=O)N2C[C@@H](F)C[C@H]2C#N)CCOCC1 [Example 7-12, (2S,4S)-4-Fluoro-1-{[(4-methyltetrahydro-2H-pyran-4-yl)amino]acetyl}-2-pyrrolidinecarbonitrile] | 15 | 
N#C[C@@H]1CCCN1C(=O)[C@H]1N[C@@H]2C[C@H]1C[C@H]2OCCO [Example 25-3, (2S)-1-{[(1R,3S,4S,6R)-6-(2-hydroxyethoxy)-2-azabicyclo[2.2.1]hept-3-yl]carbonyl}-2-pyrrolidinecarbonitrile hydrochloride] | 4.5 | 
N#C[C@@H]1C[C@H](F)CN1C(=O)[C@H]1N[C@@H]2C[C@H]1C[C@H]2O [Example 45-3, (2S,4S)-4-Fluoro-1-{[(1R,3S,4S,6R)-6-hydroxy-2-azabicyclo[2.2.1]hept-3-yl]carbonyl}-2-pyrrolidinecarbonitrile hydrochloride] | 4.7 | 
